Results taken from patent publication US20240239861A1, “GLUCAGON-RECEPTOR SELECTIVE POLYPEPTIDES AND METHODS OF USE THEREOF” (i2O Therapeutics, Inc., priority 2016, published 2024).
*1 amine or outer side, *2 acyl side, *3 side chain or, on linkers, in order; H or OH if unused. Where a SMILES comes first, the peptide text is derived from it. Side-chain parts run from the residue outwards. [ ]: non-standard residue; d: D form. The star is where a group is joined. γGlu = O=C(O)[C@H](CCC(=O)[*:2])N[*:1]; Palmitoyl = CCCCCCCCCCCCCCCC(=O)*; Aib = CC(C)(N)C(=O)O

Columns and labels:
[1] = target: human GCGR (Homo sapiens, UniProt P47871); test: Peptide-receptor mediated cAMP accumulation (LANCE Ultra cAMP) in CHO-K1 cells transfected with human GCGR; type: cell-based; conditions: read-out: GluR pEC50 (converted)
[2] = target: human GLP-1R (Homo sapiens, UniProt P43220); test: Peptide-receptor mediated cAMP accumulation (LANCE Ultra cAMP) in CHO-K1 cells transfected with human GLP-1R; type: cell-based; conditions: Table 7; GLP-1R; read-out: GLP-1R pEC50 (converted)
human GLP-1R, sequence (P43220 24-463): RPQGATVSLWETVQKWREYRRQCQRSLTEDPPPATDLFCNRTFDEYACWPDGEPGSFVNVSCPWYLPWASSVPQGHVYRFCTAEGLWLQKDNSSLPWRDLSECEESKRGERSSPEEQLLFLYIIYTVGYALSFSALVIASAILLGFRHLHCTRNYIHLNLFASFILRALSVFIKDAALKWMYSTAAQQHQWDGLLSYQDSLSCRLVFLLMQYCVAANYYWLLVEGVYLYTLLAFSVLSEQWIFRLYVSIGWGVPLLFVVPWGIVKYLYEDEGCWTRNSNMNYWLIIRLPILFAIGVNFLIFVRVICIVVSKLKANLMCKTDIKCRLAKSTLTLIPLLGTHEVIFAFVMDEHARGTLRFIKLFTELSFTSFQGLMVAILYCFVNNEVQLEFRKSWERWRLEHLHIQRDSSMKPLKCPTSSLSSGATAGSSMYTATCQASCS

human GCGR, sequence (P47871 26-477): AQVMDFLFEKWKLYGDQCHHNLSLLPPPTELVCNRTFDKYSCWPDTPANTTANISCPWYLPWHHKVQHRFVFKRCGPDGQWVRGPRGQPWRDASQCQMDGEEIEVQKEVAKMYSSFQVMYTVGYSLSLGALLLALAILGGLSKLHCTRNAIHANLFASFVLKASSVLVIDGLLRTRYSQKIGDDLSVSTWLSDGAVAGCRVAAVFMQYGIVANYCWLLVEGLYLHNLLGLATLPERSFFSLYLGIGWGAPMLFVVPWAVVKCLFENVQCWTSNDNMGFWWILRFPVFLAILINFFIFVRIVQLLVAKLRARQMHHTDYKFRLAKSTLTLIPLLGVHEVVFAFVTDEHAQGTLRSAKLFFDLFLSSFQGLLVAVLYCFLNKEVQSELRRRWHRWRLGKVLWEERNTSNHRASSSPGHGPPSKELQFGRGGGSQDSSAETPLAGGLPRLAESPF

Compound	EC50 [1] [nM]	EC50 [2] [nM]
CCCCCCCCCCCCCCCC(=O)N[C@@H](CCC(=O)NCCCC[C@H](NC(=O)[C@@H](NC(=O)[C@H](Cc1ccccc1)NC(=O)[C@H](CCC(=O)O)NC(=O)[C@H](CCC(N)=O)NC(=O)[C@H](C)NC(=O)[C@H](Cc1ccc(O)cc1)NC(=O)[C@H](CCCCN)NC(=O)C(C)(C)NC(=O)[C@H](CC(=O)O)NC(=O)[C@H](CC(C)C)NC(=O)[C@H](Cc1ccc(O)cc1)NC(=O)[C@H](CCCCN)NC(=O)[C@H](CO)NC(=O)[C@H](Cc1ccc(O)cc1)NC(=O)[C@H](CC(=O)O)NC(=O)[C@H](CO)NC(=O)[C@@H](NC(=O)[C@H](Cc1ccccc1)NC(=O)[C@@H](NC(=O)CNC(=O)[C@H](Cc1c[nH]cn1)NC(=O)[C@H](CO)NC(=O)[C@@H](N)Cc1ccc(O)cc1)[C@@H](C)O)[C@@H](C)O)C(C)C)C(=O)N[C@@H](Cc1c[nH]c2ccccc12)C(=O)N[C@@H](CC(C)C)C(=O)N[C@@H](CCC(=O)O)C(=O)N[C@@H](CC(=O)O)C(=O)N[C@@H](CCC(=O)O)C(=O)N1CCC[C@H]1C(=O)N[C@@H](CO)C(=O)N[C@@H](CO)C(=O)NCC(=O)N[C@@H](C)C(=O)N1CCC[C@H]1C(=O)N1CCC[C@H]1C(=O)N1CCC[C@H]1C(=O)N[C@@H](CO)C(=O)O)C(=O)O [Compound B2]	0.00794	> 1000
CCCCCCCCCCCCCCCC(=O)N[C@@H](CCC(=O)NCCCC[C@H](NC(=O)[C@H](CC(=O)O)NC(=O)[C@H](CO)NC(=O)[C@@H](NC(=O)[C@H](Cc1ccccc1)NC(=O)[C@@H](NC(=O)CNC(=O)[C@H](Cc1c[nH]cn1)NC(=O)[C@H](CO)NC(=O)[C@@H](N)Cc1ccc(O)cc1)[C@@H](C)O)[C@@H](C)O)C(=O)N[C@@H](CO)C(=O)N[C@@H](CCCCN)C(=O)N[C@@H](Cc1ccc(O)cc1)C(=O)N[C@@H](CC(C)C)C(=O)N[C@@H](CC(=O)O)C(=O)NC(C)(C)C(=O)N[C@@H](CCCCN)C(=O)N[C@@H](Cc1ccc(O)cc1)C(=O)N[C@@H](C)C(=O)N[C@@H](CCC(N)=O)C(=O)N[C@@H](CCC(=O)O)C(=O)N[C@@H](Cc1ccccc1)C(=O)N[C@H](C(=O)NC(C)(C)C(=O)N[C@@H](Cc1c[nH]c2ccccc12)C(=O)N[C@@H](CC(C)C)C(=O)N[C@@H](CCC(=O)O)C(=O)N[C@@H](CC(=O)O)C(=O)N[C@@H](CCC(=O)O)C(=O)N1CCC[C@H]1C(=O)N[C@@H](CO)C(=O)N[C@@H](CO)C(=O)NCC(=O)N[C@@H](C)C(=O)N1CCC[C@H]1C(=O)N1CCC[C@H]1C(=O)N1CCC[C@H]1C(=O)N[C@@H](CO)C(=O)O)C(C)C)C(=O)O [Compound B4] (H-YSHGTFTSDK([γGlu-Palmitoyl])SKYLD[Aib]KYAQEFV[Aib]WLEDEPSSGAPPPS-OH)	0.794	> 1000
CC(C)C[C@H](NC(=O)[C@H](Cc1ccc(O)cc1)NC(=O)[C@H](CCCCN)NC(=O)[C@H](CO)NC(=O)[C@H](Cc1ccc(O)cc1)NC(=O)[C@H](CC(=O)O)NC(=O)[C@H](CO)NC(=O)[C@@H](NC(=O)[C@H](Cc1ccccc1)NC(=O)[C@@H](NC(=O)CNC(=O)[C@H](Cc1c[nH]cn1)NC(=O)[C@H](CO)NC(=O)[C@@H](N)Cc1ccc(O)cc1)[C@@H](C)O)[C@@H](C)O)C(=O)N[C@@H](CC(=O)O)C(=O)NC(C)(C)C(=O)N[C@@H](CCCCN)C(=O)N[C@@H](Cc1ccc(O)cc1)C(=O)N[C@@H](C)C(=O)N[C@@H](CCC(N)=O)C(=O)N[C@@H](CCC(=O)O)C(=O)N[C@@H](Cc1ccccc1)C(=O)N[C@H](C(=O)NC(C)(C)C(=O)N[C@@H](Cc1c[nH]c2ccccc12)C(=O)N[C@@H](CC(C)C)C(=O)N[C@@H](CCC(=O)O)C(=O)N[C@@H](CC(=O)O)C(=O)N[C@@H](CCC(=O)O)C(=O)N1CCC[C@H]1C(=O)N[C@@H](CO)C(=O)N[C@@H](CO)C(=O)N[C@@H](CCCCNC(=O)COCCOCCNC(=O)COCCOCCNC(=O)CC[C@H](NC(=O)CCCCCCCCCCCCCCCCC(=O)O)C(=O)O)C(=O)N[C@@H](C)C(=O)N1CCC[C@H]1C(=O)N1CCC[C@H]1C(=O)N1CCC[C@H]1C(=O)N[C@@H](CO)C(=O)O)C(C)C [Compound B5]	0.251	> 1000
CC(C)C[C@H](NC(=O)[C@H](Cc1c[nH]c2ccccc12)NC(=O)[C@H](CCCCNC(=O)COCCOCCNC(=O)COCCOCCNC(=O)CC[C@H](NC(=O)CCCCCCCCCCCCCCCCC(=O)O)C(=O)O)NC(=O)[C@@H](NC(=O)[C@H](Cc1ccccc1)NC(=O)[C@H](CCC(=O)O)NC(=O)[C@H](CCC(N)=O)NC(=O)[C@H](C)NC(=O)[C@H](Cc1ccc(O)cc1)NC(=O)[C@H](CCCCN)NC(=O)C(C)(C)NC(=O)[C@H](CC(=O)O)NC(=O)[C@H](CC(C)C)NC(=O)[C@H](Cc1ccc(O)cc1)NC(=O)[C@H](CCCCN)NC(=O)[C@H](CO)NC(=O)[C@H](Cc1ccc(O)cc1)NC(=O)[C@H](CC(=O)O)NC(=O)[C@H](CO)NC(=O)[C@@H](NC(=O)[C@H](Cc1ccccc1)NC(=O)[C@@H](NC(=O)CNC(=O)[C@H](Cc1c[nH]cn1)NC(=O)[C@H](CO)NC(=O)[C@@H](N)Cc1ccc(O)cc1)[C@@H](C)O)[C@@H](C)O)C(C)C)C(=O)N[C@@H](CCC(=O)O)C(=O)N[C@@H](CC(=O)O)C(=O)N[C@@H](CCC(=O)O)C(=O)N1CCC[C@H]1C(=O)N[C@@H](CO)C(=O)N[C@@H](CO)C(=O)NCC(=O)N[C@@H](C)C(=O)N1CCC[C@H]1C(=O)N1CCC[C@H]1C(=O)N1CCC[C@H]1C(=O)N[C@@H](CO)C(=O)O [Compound B6]	0.0794	> 1000
CC(C)C[C@H](NC(=O)[C@H](Cc1ccc(O)cc1)NC(=O)[C@H](CCCCN)NC(=O)[C@H](CO)NC(=O)[C@H](Cc1ccc(O)cc1)NC(=O)[C@H](CC(=O)O)NC(=O)[C@H](CO)NC(=O)[C@@H](NC(=O)[C@H](Cc1ccccc1)NC(=O)[C@@H](NC(=O)CNC(=O)[C@H](Cc1c[nH]cn1)NC(=O)[C@H](CO)NC(=O)[C@@H](N)Cc1ccc(O)cc1)[C@@H](C)O)[C@@H](C)O)C(=O)N[C@@H](CC(=O)O)C(=O)N[C@@H](CCCCNC(=O)COCCOCCNC(=O)COCCOCCNC(=O)CC[C@H](NC(=O)CCCCCCCCCCCCCCCCC(=O)O)C(=O)O)C(=O)N[C@@H](CCCCN)C(=O)N[C@@H](Cc1ccc(O)cc1)C(=O)N[C@@H](C)C(=O)N[C@@H](CCC(N)=O)C(=O)N[C@@H](CCC(=O)O)C(=O)N[C@@H](Cc1ccccc1)C(=O)N[C@H](C(=O)NC(C)(C)C(=O)N[C@@H](Cc1c[nH]c2ccccc12)C(=O)N[C@@H](CC(C)C)C(=O)N[C@@H](CCC(=O)O)C(=O)N[C@@H](CC(=O)O)C(=O)N[C@@H](CCC(=O)O)C(=O)N1CCC[C@H]1C(=O)N[C@@H](CO)C(=O)N[C@@H](CO)C(=O)NCC(=O)N[C@@H](C)C(=O)N1CCC[C@H]1C(=O)N1CCC[C@H]1C(=O)N1CCC[C@H]1C(=O)N[C@@H](CO)C(=O)O)C(C)C [Compound B7]	2.51	> 1000
